According to US20120196899A1, “METHODS AND PRODUCTS FOR TREATING INFLAMMATION” (Rock Creek Pharmaceuticals, Inc., priority 2010, published 2012):
Where “and” joins values, the source holds several entries; their conditions need not be identical. Equal entries are not always repeated. Entries after “also recorded” stand apart in the source; their conditions may differ.

Tests used:
[1] = target: T1, nAChR α4/β2 (Homo sapiens, UniProt P17787+P43681); assay: nAChR α4/β2 channel agonist assay (FLIPR membrane potential); type: cell-based; settings: 30 μM Ach = 100%, HBPS = 0%
T1 construct: host or cells: HEK293 cells, transient transfection
T1 sequence (P17787 26-502): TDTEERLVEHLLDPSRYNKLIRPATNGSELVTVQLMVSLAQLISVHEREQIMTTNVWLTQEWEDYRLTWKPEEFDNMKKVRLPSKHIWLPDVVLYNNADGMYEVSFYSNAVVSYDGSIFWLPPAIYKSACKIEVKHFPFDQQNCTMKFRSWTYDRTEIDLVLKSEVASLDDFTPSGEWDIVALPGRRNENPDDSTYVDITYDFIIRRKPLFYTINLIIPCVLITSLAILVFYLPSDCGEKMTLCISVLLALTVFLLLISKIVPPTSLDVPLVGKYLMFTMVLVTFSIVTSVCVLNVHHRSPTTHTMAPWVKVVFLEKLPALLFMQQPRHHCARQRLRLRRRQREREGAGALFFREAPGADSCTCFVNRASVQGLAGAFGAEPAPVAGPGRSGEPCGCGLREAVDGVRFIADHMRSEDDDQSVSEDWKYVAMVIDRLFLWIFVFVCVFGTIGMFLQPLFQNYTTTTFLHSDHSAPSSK
T1 sequence (P43681 29-627): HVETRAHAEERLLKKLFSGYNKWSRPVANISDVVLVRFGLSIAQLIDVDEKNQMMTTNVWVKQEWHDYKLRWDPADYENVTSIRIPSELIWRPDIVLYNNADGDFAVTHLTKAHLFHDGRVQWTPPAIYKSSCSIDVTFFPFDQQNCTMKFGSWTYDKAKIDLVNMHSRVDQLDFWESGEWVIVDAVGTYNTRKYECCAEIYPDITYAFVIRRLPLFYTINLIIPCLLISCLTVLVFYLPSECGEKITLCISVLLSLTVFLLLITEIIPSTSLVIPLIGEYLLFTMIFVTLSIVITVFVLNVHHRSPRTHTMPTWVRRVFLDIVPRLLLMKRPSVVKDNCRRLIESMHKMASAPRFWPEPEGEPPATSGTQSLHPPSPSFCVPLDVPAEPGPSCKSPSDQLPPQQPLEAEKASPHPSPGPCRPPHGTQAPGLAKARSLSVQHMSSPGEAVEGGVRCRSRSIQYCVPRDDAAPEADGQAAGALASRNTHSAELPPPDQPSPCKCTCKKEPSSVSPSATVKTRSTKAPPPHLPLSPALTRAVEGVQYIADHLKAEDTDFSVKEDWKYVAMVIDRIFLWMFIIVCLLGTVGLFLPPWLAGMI
Procedure: (§2) The following three (3) channels were evaluated: • 1. nAChR α3/β4 (encoded by the human CHRNA3 and CHRNB4 gene and stably expressed in CHO cells); • 2. nAChR α4/β2 (CHRNA4 and CHRNB2 gene and transiently expressed in HEK293 cells); and • 3. nAChR α7 (encoded by the human nicotinic α7 gene coexpressed in CHO cells with the chaperone RIC-3 encoded by the human RIC3 gene).
(§3) The ability of each test article to act as an agonist, a positive allosteric modulator or antagonist of three nAChR receptor channels was evaluated in the presence of 0.1 atropine. Both test articles were evaluated for responses on each nAChR channel at eight (8) concentrations: 0.3, 1, 3, 10, 30, 100, 300, and 1000 μM (n=4 for each concentration).
(§4) HEK293 or CHO cells were transiently or stably transfected with the appropriate human ion channel cDNAs. Stable transfectants were selected by coexpression with the antibiotic-resistance gene(s) incorporated into the expression plasmid(s). Selection pressure was maintained by including selection antibiotics in the culture medium. HEK293 cells were cultured in Dulbecco's Modified Eagle Medium/Nutrient Mixture F-12 (D-MEM/F-12) supplemented with 10% fetal bovine serum, 100 U/mL penicillin G sodium, 100 g/mL streptomycin sulfate and appropriate selection antibiotics. CHO cells were cultured in Ham's F-12 supplemented with 10% fetal bovine serum, 100 U/mL penicillin G sodium, 100 g/mL streptomycin sulfate and appropriate selection antibiotics.
(§5) For FLIPR TETRA™ assay, cells were plated in 384-well black wall, flat clear bottom microtiter plates (Type: BD Biocoat Poly-D-Lysine Multiwell Cell Culture Plate) at 20,000 to 30,000 cells per well (384-well plate). Cells were incubated at 37° C. overnight or until the cells reached a sufficient density in the wells (near confluent monolayer) to use in fluorescence assays. For α4β2 assay, cells were incubated at 27° C. for at least 7 hours before use.
(§6) Experiments were performed with either the FLIPR calcium sensitive dye kit (Fluo-8, ABDbioquest, for nAChR α3/β4 and nAChR α7) or FLIPR membrane potential kit (Molecular Devices, for nAChR α4/β2) according to the manufacturer's instructions. Briefly, cells were incubated with 201 dye for 30 min at 37° C. After dye loading period, for the agonist assay, 5 μl of the test, vehicle, or control articles at concentration of 5 times of final concentration were applied to the cells without stimulation. For the positive allosteric modulation (PAM) and antagonist assay, after test article application, the cells were stimulated with either low dose (for PAM) or high dose (for antagonist) of Ach.
(§7) Concentration-response data was fitted to a Hill equation of the following form:
(§8) where Base is the response at low concentrations of test article, Max is the maximum response at high concentrations, xhalf is the EC50 or IC50, the concentration of test article producing either half-maximal activation or inhibition, and rate is the Hill coefficient. Nonlinear least squares fits were made assuming a simple one-to-one binding model.
The ability of each test article to act as an agonist of the nAChR carried out in the absence of the positive control agonist. The signal elicited in the presence of the positive control agonist (30 μM Ach) was set to 100% and the signal from the vehicle control (HBPS) was set to 0%. Values were considered significant (bold font) if the test article mean was three or more standard deviations above from the vehicle control mean.

[2] = target: T1, nAChR α4/β2; assay: nAChR α4/β2 positive allosteric modulator assay (FLIPR); type: cell-based; settings: with 10 μM Ach (= 0%), 10 μM Ach + epibatidine = 100%
Procedure: as §2, §3, §4, §5, §6
The signal elicited in the presence of the positive control agonist and allosteric modulator epibatidine (10 μM Ach+3 μM epibatidine) was set to 100% and the signal from the agonist control (10 μM Ach) was set to 0%.

[3] = target: nAChR α3/β4 (Homo sapiens, UniProt P30926+P32297); assay: nAChR α3/β4 channel agonist assay (FLIPR, Fluo-8 calcium); settings: 30 μM Ach = 100%, HBPS = 0%
nAChR α3/β4, sequence (P32297 32-505): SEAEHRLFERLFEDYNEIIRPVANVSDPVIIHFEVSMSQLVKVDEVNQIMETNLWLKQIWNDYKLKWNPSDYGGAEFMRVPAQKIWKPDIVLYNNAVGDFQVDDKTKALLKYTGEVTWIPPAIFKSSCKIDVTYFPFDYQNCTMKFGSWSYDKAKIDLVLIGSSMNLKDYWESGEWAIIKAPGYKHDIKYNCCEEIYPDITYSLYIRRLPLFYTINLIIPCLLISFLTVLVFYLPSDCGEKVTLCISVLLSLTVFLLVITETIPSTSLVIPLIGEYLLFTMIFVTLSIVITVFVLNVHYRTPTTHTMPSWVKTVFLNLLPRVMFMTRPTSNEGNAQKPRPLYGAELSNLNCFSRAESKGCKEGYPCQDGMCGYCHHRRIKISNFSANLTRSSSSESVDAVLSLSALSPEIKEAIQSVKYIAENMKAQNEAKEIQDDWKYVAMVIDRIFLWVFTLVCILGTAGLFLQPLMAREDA
nAChR α3/β4, sequence (P30926 22-498): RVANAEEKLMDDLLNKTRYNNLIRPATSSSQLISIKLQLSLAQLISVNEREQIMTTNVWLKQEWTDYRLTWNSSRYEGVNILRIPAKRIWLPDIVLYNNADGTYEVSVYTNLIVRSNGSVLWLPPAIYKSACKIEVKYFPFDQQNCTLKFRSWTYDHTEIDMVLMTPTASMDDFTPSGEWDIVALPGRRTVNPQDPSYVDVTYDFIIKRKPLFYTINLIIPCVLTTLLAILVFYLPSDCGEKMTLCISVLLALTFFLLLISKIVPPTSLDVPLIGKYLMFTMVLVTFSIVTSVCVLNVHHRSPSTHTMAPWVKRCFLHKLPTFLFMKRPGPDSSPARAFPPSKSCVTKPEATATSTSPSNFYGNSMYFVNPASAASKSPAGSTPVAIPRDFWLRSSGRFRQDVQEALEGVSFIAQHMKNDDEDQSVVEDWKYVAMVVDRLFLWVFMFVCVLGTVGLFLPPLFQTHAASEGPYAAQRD
Procedure: as §2, §3, §4, §5, §6, §7, §8
The ability of both test articles to act as an agonist of nAChR carried out in the absence of the positive control agonist. The signal elicited in the presence of the positive control agonist, 30 μM acetylcholine (Ach) was set to 100% and the signal from the vehicle control, HEPES-buffered physiological saline (HBPS) solution was set to 0%.

[4] = Physical signs after single i.v. dose (Example 3); type: in vivo, Sprague-Dawley rats; settings: nicotine 0.4 mg/kg single i.v.; all males and two females
Procedure: Four aliquots of each dose level formulation were collected and stored at −80° C. The test compound, corresponding dose level, number of animals, and sample collection times for Phase I of the study are shown in Table 3. The test compound, corresponding dose level, number of animals, and sample collection times for Phase II of the study are shown in Table 4. The physical signs of each animal were monitored following administration of the test compound.

[5] = Hematology, day 15; type: in vivo, Sprague-Dawley rats; settings: for EOSINOPHIL / HCT / HGB / LYMPHOCYTE / MCH / MCHC / MCV / MONOCYTE / NEUTROPHIL SEG / PLATELET COUNT / RBC / RE[…] / WBC: 0.75 mg/kg, group mean
Text: (§1) On day 15, urine was collected on all surviving animals for urinalysis. The animals were euthanized and bled via cardiac puncture. Blood was collected for hematology, clinical chemistry, and coagulation analysis. Tissues were collected, weighed, and stored in 10% neutral-buffered formalin for possible future analysis.

[6] = Coagulation parameters (aPTT, PT), day 15; type: in vivo, Sprague-Dawley rats; settings: for ACTIVATED PARTIAL THROMBOPLASTIN TIME: 0.75 mg/kg, group mean; for ACTIVE PARTIAL THROMBOPLASTIN TIME: nicotine 0.75 mg/kg, individual animals, tartrate
Text: as §1
Individual values for the coagulation parameters activated partial thromboplastin (aPTT) and prothrombin times (PT) for each animal are listed in Table 34 (normal ranges, Table 30). These are summarized in terms of descriptive statistics in Table 25.

[7] = Urinalysis, day 15; type: in vivo, Sprague-Dawley rats; settings: Dose is 0.75 mg/kg nicotine
Text: as §1
There were no notable differences between the active treatment groups and controls and the observations are all consistent with those expected for this species.

[8] = individual animals E1-E10 (M and F)
[9] = individual animals E1-E10 (M and F), tartrate, 0.75 mg/kg

Structure (SMILES): C1=CCC(c2cccnc2)NC1 (racemic) [Anatabine (racemate)]
- Normalized % Activation ([1]; test conc 0.3 μM): 0.28%
- Normalized % Activation ([1]; test conc 1 μM): 5.36%
- Normalized % Activation ([1]; test conc 3 μM): 10.41%
- Normalized % Activation ([1]; test conc 10 μM): 12.65%
- Normalized % Activation ([1]; test conc 30 μM): 9.07%
- Normalized % Activation ([1]; test conc 100 μM): 16.96%
- Normalized % Activation ([1]; test conc 300 μM): 50.60%
- Normalized % Activation ([1]; test conc 1000 μM): 85.29%
- Normalized % Potentiation ([2]; test conc 0.3 μM): −18.94%
- Normalized % Potentiation ([2]; test conc 1 μM): −27.03%
- Normalized % Potentiation ([2]; test conc 3 μM): −35.59%
- Normalized % Potentiation ([2]; test conc 10 μM): −42.34%
- Normalized % Potentiation ([2]; test conc 30 μM): −39.48%
- Normalized % Potentiation ([2]; test conc 100 μM): −38.34%
- Normalized % Potentiation ([2]; test conc 300 μM): −41.07%
- Normalized % Potentiation ([2]; test conc 1000 μM): −35.30%
- Normalized % Activation ([3]; test conc 0.3 μM): 1.32%
- Normalized % Activation ([3]; test conc 1 μM): −0.01%
- Normalized % Activation ([3]; test conc 3 μM): −1.53%
- Normalized % Activation ([3]; test conc 10 μM): −2.73%
- Normalized % Activation ([3]; test conc 30 μM): 4.93%
- Normalized % Activation ([3]; test conc 100 μM): 10.44%
- Normalized % Activation ([3]; test conc 300 μM): 16.97%

Structure (SMILES): CN1CCCC1c1cccnc1.O=C(O)C(O)C(O)C(=O)O (single isomer, unassigned; (-)) [Nicotine, (−) Nicotine hydrogen tartrate, reference compound]
- physical signs [4]: experienced tremors immediately post dose
- EOSINOPHIL ([5]; female): 0.0%
- HCT ([5]; female): 46.7%
- HGB ([5]; female): 16.0 g/dL
- LYMPHOCYTE ([5]; female): 86.3%
- MCH ([5]; female): 19.9 pg
- MCHC ([5]; female): 34.2%
- MCV ([5]; female): 58.7 fL
- MONOCYTE ([5]; female): 1.0%
- NEUTROPHIL SEG ([5]; female): 12.7%
- PLATELET COUNT ([5]; female): 1.363e+06 µL⁻¹
- RBC ([5]; female): 8e+06 µL⁻¹
- RE[…] ([5]; female): 5.1%
- WBC ([5]; female): 10200 µL⁻¹
- mean corpuscular volume (MCV) and mean corpuscular hemoglobin (MCH) ([5]; females, anatabine […], nicotine 0.75 mg/kg single i.v.): small, but statistically significant decreases
- EOSINOPHIL ([5]; male): 0.0%
- HCT ([5]; male): 46.6%
- HGB ([5]; male): 15.8 g/dL
- LYMPHOCYTE ([5]; male): 85.8%
- MCH ([5]; male): 20.9 pg
- MCHC ([5]; male): 34.0%
- MCV ([5]; male): 61.5 fL
- MONOCYTE ([5]; male): 2.5%
- NEUTROPHIL SEG ([5]; male): 11.8%
- PLATELET COUNT ([5]; male): 1.3558e+06 µL⁻¹
- RBC ([5]; male): 7.6e+06 µL⁻¹
- RE[…] ([5]; male): 5.2%
- WBC ([5]; male): 11400 µL⁻¹
- ACTIVATED PARTIAL THROMBOPLASTIN TIME ([6]; female): 16.9 s
- ACTIVATED PARTIAL THROMBOPLASTIN TIME ([6]; male): 16.3 s
- aPTT versus vehicle control ([6]; nicotine 0.75 mg/kg single i.v., male and female, day 15): aPTT was significantly lower relative to the vehicle control group
- ACTIVE PARTIAL THROMBOPLASTIN TIME ([6]; female rats): 18.7 s and 15 s
- ACTIVE PARTIAL THROMBOPLASTIN TIME ([6]; male rats): 15 s and 16.3 s and 17.6 s and 16.2 s
- Urinalysis VOLUME ([7]; animal E6 (F)): 10 UL
- Urinalysis CLARITY [7, 8]: HAZY
- Urinalysis COLOR [7, 8]: YELLOW
- Urinalysis GLUCOSE [7, 8]: NEGATIVE
- Urinalysis KETONES [7, 8]: NEGATIVE
- Urinalysis UROBILINOGEN [7, 8]: NORMAL
- Urinalysis VOLUME [7, 8]: <0.5 mL
- Urinalysis PROTEIN [7, 9]: NEGATIVE; also recorded: TRACE
- Urinalysis SPEC GRAVITY [7, 9]: 1.054 and 1.058 and 1.046 and 1.047 and 1.052
- Urinalysis pH [7, 9]: 6 and 6.5 (2×) and 7 and 7.5
